Measurements reported in patent publication US4868321A, “Isothiocyanate intermediates” (FMC Corporation, priority 1988, dated 1989).

Key:
Type in all cases: in vivo
Rice [1] = assay: Preemergence Herbicidal Activity, Rice; conditions: Oryza sativa, pre-emergence
Source text: (§1) The herbicidal data in the following Tables 3 and 4 was obtained in the manner described in PCT published application no. […] In those tables, the test compounds are identified by numbers which correspond to those in Table 1, "kg/ha" is kilograms per hectare, and "% C" is percent control.

Cotton [2] = assay: Postemergence Herbicidal Activity, Cotton; conditions: Gossypium hirsutum, post-emergence
Source text: (§2) The herbicidal data in the following Tables 3 and 4 was obtained in the manner described in PCT published application no. WO 85/01939, previously mentioned, usually employing solutions of the herbicidal compound in 50/50 acetone/water mixtures. In those tables, the test compounds are identified by numbers which correspond to those in Table 1, "kg/ha" is kilograms per hectare, and "% C" is percent control.

Velvetleaf [3] = assay: Preemergence Herbicidal Activity, Velvetleaf; conditions: Abutilon theophrasti, pre-emergence
Source text: as §2

Cotton [4] = assay: Preemergence Herbicidal Activity, Cotton; conditions: Gossypium hirsutum, pre-emergence
Source text: as §2

Field Bindweed [5] = assay: Postemergence Herbicidal Activity, Field Bindweed; conditions: post-emergence
Source text: as §2

Soybean [6] = assay: Postemergence Herbicidal Activity, Soybean; conditions: Glycine max, post-emergence
Source text: as §1

Green Foxtail [7] = assay: Preemergence Herbicidal Activity, Green Foxtail; conditions: Setaria viridis, pre-emergence
Source text: as §1

Field Corn [8] = assay: Postemergence Herbicidal Activity, Field Corn; conditions: Zea mays, post-emergence
Source text: as §1

Barnyardgrass [9] = assay: Postemergence Herbicidal Activity, Barnyardgrass; conditions: Echinochloa crus-galli, post-emergence
Source text: as §1

Field Corn [10] = assay: Preemergence Herbicidal Activity, Field Corn; conditions: Zea mays, pre-emergence
Source text: as §1

Johnsongrass [11] = assay: Preemergence Herbicidal Activity, Johnsongrass; conditions: Sorghum halepense, pre-emergence
Source text: as §1

Morningglory [12] = assay: Preemergence Herbicidal Activity, Morningglory; conditions: Ipomoea, pre-emergence
Source text: as §2

Velvetleaf [13] = assay: Postemergence Herbicidal Activity, Velvetleaf; conditions: Abutilon theophrasti, post-emergence
Source text: as §2

Green Foxtail [14] = assay: Postemergence Herbicidal Activity, Green Foxtail; conditions: Setaria viridis, post-emergence
Source text: as §1

Field Bindweed [15] = assay: Preemergence Herbicidal Activity, Field Bindweed; conditions: pre-emergence
Source text: as §2

Rice [16] = assay: Postemergence Herbicidal Activity, Rice; conditions: Oryza sativa, post-emergence
Source text: as §1

Wheat [17] = assay: Preemergence Herbicidal Activity, Wheat; conditions: Triticum aestivum, pre-emergence
Source text: as §1

Soybean [18] = assay: Preemergence Herbicidal Activity, Soybean; conditions: Glycine max, pre-emergence
Source text: as §1

Wheat [19] = assay: Postemergence Herbicidal Activity, Wheat; conditions: Triticum aestivum, post-emergence
Source text: as §1

Morningglory [20] = assay: Postemergence Herbicidal Activity, Morningglory; conditions: Ipomoea, post-emergence
Source text: as §2

Johnsongrass [21] = assay: Postemergence Herbicidal Activity, Johnsongrass; conditions: Sorghum halepense, post-emergence
Source text: as §1

Barnyardgrass [22] = assay: Preemergence Herbicidal Activity, Barnyardgrass; conditions: Echinochloa crus-galli, pre-emergence
Source text: as §1

CS(=O)(=O)N(c1cc(-n2nnn(CCCF)c2=O)c(F)cc1Br)S(C)(=O)=O [Compound 10, 1-(4-bromo-2-fluoro-5-[bis(N--methylsulfonyl)amino]phenyl]-1,4-dihydro-4-(3-fluoropropyl)-5H--tetrazol-5-one] was tested, and the plant injury at 1000 g/ha (Rice [1]; 1.0 kg/ha) was 95%, the plant injury at 1000 g/ha (Cotton [2]; 1.0 kg/ha) was 100% and the pest or weed control at 1000 g/ha (Velvetleaf [3]; 1.0 kg/ha) was 100%. For the same compound, the plant injury at 1000 g/ha (Cotton [4]; 1.0 kg/ha) was 100%, the pest or weed control at 1000 g/ha (Field Bindweed [5]; 1.0 kg/ha) was 100% and the plant injury at 1000 g/ha (Soybean [6]; 1.0 kg/ha) was 95%. For the same compound, the pest or weed control at 1000 g/ha (Green Foxtail [7]; 1.0 kg/ha) was 100%, the plant injury at 1000 g/ha (Field Corn [8]; 1.0 kg/ha) was 90% and the pest or weed control at 1000 g/ha (Barnyardgrass [9]; 1.0 kg/ha) was 100%. The plant injury at 1000 g/ha (Field Corn [10]; 1.0 kg/ha) was 95%, the pest or weed control at 1000 g/ha (Johnsongrass [11]; 1.0 kg/ha) was 95% and the pest or weed control at 1000 g/ha (Morningglory [12]; 1.0 kg/ha) was 100%. For the same compound, the pest or weed control at 1000 g/ha (Velvetleaf [13]; 1.0 kg/ha) was 100%, the pest or weed control at 1000 g/ha (Green Foxtail [14]; 1.0 kg/ha) was 100% and the pest or weed control at 1000 g/ha (Field Bindweed [15]; 1.0 kg/ha) was 100%. The plant injury at 1000 g/ha (Rice [16]; 1.0 kg/ha) was 30%, the plant injury at 1000 g/ha (Wheat [17]; 1.0 kg/ha) was 90% and the plant injury at 1000 g/ha (Soybean [18]; 1.0 kg/ha) was 80%. It also gave a plant injury at 1000 g/ha (Wheat [19]; 1.0 kg/ha) of 60%, a pest or weed control at 1000 g/ha (Morningglory [20]; 1.0 kg/ha) of 100% and a pest or weed control at 1000 g/ha (Johnsongrass [21]; 1.0 kg/ha) of 100%. It also gave a pest or weed control at 1000 g/ha (Barnyardgrass [22]; 1.0 kg/ha) of 100%.
Compound CCS(=O)(=O)N(C)c1cc(-n2nnn(CCCF)c2=O)c(F)cc1Cl [Compound 12, 1-[4-chloro-2-fluoro-5-[(N--ethylsulfonyl-N--methyl)amino]phenyl]-1,4-dihydro-4-(3-fluoropropyl)-5H--tetrazol-5-one] has a plant injury at 500 g/ha (Rice [1]; 0.5 kg/ha) of 90%, a plant injury at 500 g/ha (Cotton [2]; 0.5 kg/ha) of 100% and a pest or weed control at 500 g/ha (Velvetleaf [3]; 0.5 kg/ha) of 100%. It also gave a plant injury at 500 g/ha (Cotton [4]; 0.5 kg/ha) of 100%, a pest or weed control at 500 g/ha (Field Bindweed [5]; 0.5 kg/ha) of 100% and a plant injury at 500 g/ha (Soybean [6]; 0.5 kg/ha) of 70%. For the same compound, the pest or weed control at 500 g/ha (Green Foxtail [7]; 0.5 kg/ha) was 100%, the plant injury at 500 g/ha (Field Corn [8]; 0.5 kg/ha) was 70% and the pest or weed control at 500 g/ha (Barnyardgrass [9]; 0.5 kg/ha) was 70%. For the same compound, the plant injury at 500 g/ha (Field Corn [10]; 0.5 kg/ha) was 100%, the pest or weed control at 500 g/ha (Johnsongrass [11]; 0.5 kg/ha) was 100% and the pest or weed control at 500 g/ha (Morningglory [12]; 0.5 kg/ha) was 100%. The pest or weed control at 500 g/ha (Velvetleaf [13]; 0.5 kg/ha) was 100%, the pest or weed control at 500 g/ha (Green Foxtail [14]; 0.5 kg/ha) was 70% and the pest or weed control at 500 g/ha (Field Bindweed [15]; 0.5 kg/ha) was 100%. The plant injury at 500 g/ha (Rice [16]; 0.5 kg/ha) was 30%, the plant injury at 500 g/ha (Wheat [17]; 0.5 kg/ha) was 100% and the plant injury at 500 g/ha (Soybean [18]; 0.5 kg/ha) was 80%. The plant injury at 500 g/ha (Wheat [19]; 0.5 kg/ha) was 80%, the pest or weed control at 500 g/ha (Morningglory [20]; 0.5 kg/ha) was 100% and the pest or weed control at 500 g/ha (Johnsongrass [21]; 0.5 kg/ha) was 70%. The pest or weed control at 500 g/ha (Barnyardgrass [22]; 0.5 kg/ha) was 100%.
CCS(=O)(=O)Nc1cc(-n2nnn(C)c2=O)c(F)cc1Cl [Compound 43, 1-[4-Chloro-2-fluoro-5-(N--ethylsulfonylamino)phenyl]-4,5-dihydro-4-methyl-5H--tetrazol-5-one] was tested, and the plant injury at 2000 g/ha (Cotton [2]; 2.0 kg/ha) was 100%, the pest or weed control at 2000 g/ha (Field Bindweed [5]; 2.0 kg/ha) was 100% and the plant injury at 2000 g/ha (Soybean [6]; 2.0 kg/ha) was 50%. The plant injury at 2000 g/ha (Field Corn [8]; 2.0 kg/ha) was 30%, the pest or weed control at 2000 g/ha (Barnyardgrass [9]; 2.0 kg/ha) was 50% and the pest or weed control at 2000 g/ha (Velvetleaf [13]; 2.0 kg/ha) was 95%. It also gave a pest or weed control at 2000 g/ha (Green Foxtail [14]; 2.0 kg/ha) of 40%, a plant injury at 2000 g/ha (Rice [16]; 2.0 kg/ha) of 50% and a plant injury at 2000 g/ha (Wheat [19]; 2.0 kg/ha) of 50%. The pest or weed control at 2000 g/ha (Morningglory [20]; 2.0 kg/ha) was 100% and the pest or weed control at 2000 g/ha (Johnsongrass [21]; 2.0 kg/ha) was 70%.
